Assay [1] concerns the target T1, AtABCC2 (Arabidopsis thaliana, UniProt Q42093).
T1 construct: expressed in transfected cells; host or cells: Saccharomyces cerevisiae SM7 (ycf1/yhl035c/yll015w/yll048c-deficient, expressing TaPCS1); microsomal vesicles
It counts as biochemical, A. thaliana.

The subject of assay [2] is A. thaliana mesophyll vacuoles. As to the kind of experiment: PC2 transport into intact vacuoles isolated from A. thaliana mesophyll protoplasts. The class given is biochemical.
Assay [3] concerns the target T2, AtABCC1 (Arabidopsis thaliana, UniProt Q9C8G9).
T2 construct: expressed in transfected cells; host or cells: Saccharomyces cerevisiae SM7 (ycf1/yhl035c/yll015w/yll048c-deficient, expressing TaPCS1); microsomal vesicles
As to the kind of experiment: PC2 transport into microsomal vesicles of SM7 yeast expressing AtABCC1. It counts as biochemical, A. thaliana. The conditions noted are these: vanadate 1 mM, NH4Cl 5 mM, PC 25 μM.

Assay [4] has as its target PC2-As complex (phytochelatin PC2 in complex with As(III)). Briefly: cell-based or functional assay.
Assay [5] deals with atabcc1 atabcc2 double knock-out A. thaliana. The conditions noted are these: in vivo.

As to arsenite, the “transport of arsenic in a non-chelated form (ICP-MS)” value in assay [1] is “not transported”.
As to `[O]=[V]([O-])([O-])[O-]` [vanadate], the “inhibition of absorption of PC2—As complex into the yeast vesicle” value in assay [1] and in assay [3] was “remarkably reduced” each time. Further, the “residual transport activity (PC transport of isolated vacuoles)” value in assay [2] is 25±7%.
Turning to AtABCC1 (from UniProt Q9C8G9 1-1622), the concentration of PC at half maximum of the absorption (transport) activities, 35S-PC2 uptake into yeast SM7 microsomal vesicles in assay [4] was determined as 350 µM.
For `O=[As]([O-])([O-])O.[Na+].[Na+]` [As(V), Na2HAsO4], the “growth of the atabcc1 atabcc2 knock-out line compared with the wild type” value in assay [5] is given as “dramatically inhibited”.
As to `[Cd]` [Cd, cadmium], the “growth of the atabcc1 atabcc2 knock-out line compared with the wild type” value in assay [5] is on record as “dramatically inhibited”.
Consider AtABCC2 (from UniProt Q42093 1-1623), for which the concentration of PC at half maximum of the absorption (transport) activities, 35S-PC2 uptake into yeast SM7 microsomal vesicles in assay [4] is 350 µM.
